Laboratory results as given in ChEMBL document CHEMBL4765450, “The components and activities analysis of a novel anticoagulant candidate dHG-5” (Eur J Med Chem, 2020).
Active and inactive are the calls of the source. The calls are words filed in the database; no cut-off is given here.

What was measured:
[1] = target: Coagulation factor IX/VIII (Homo sapiens, UniProt P00451+P00740); assay: Inhibition of human citrated plasma iXase (factor 8a-factor 9a complex) preincubated for 2 mins followed by factor 10 addition and measured after 1 min by FXa chromogenic substrate SXa-11 based assay; type: protein-complex assay
[2] = target: T1, Coagulation factor IX (Homo sapiens, UniProt P00740); assay: Inhibition of factor 9a (unknown origin) binding to immobilized biotinylated oHG-11 by biolayer interferometry
[3] = target: Prothrombin (Homo sapiens) (UniProt P00734); assay: Inhibition of factor 2a (unknown origin) at IC50 preincubated for 1 min followed by chromogenic substrate addition and measured for 2 mins; conditions: time 3.0 min
[4] = target: T2, Coagulation factor VII (Homo sapiens) (UniProt P08709); assay: Inhibition of factor 7a (unknown origin) at IC50 using pefachrome factor VIIa as substrate preincubated for 1 min followed by chromogenic substrate addition and measured for 2 mins; conditions: time 3.0 min
T2 sequence (whole entry): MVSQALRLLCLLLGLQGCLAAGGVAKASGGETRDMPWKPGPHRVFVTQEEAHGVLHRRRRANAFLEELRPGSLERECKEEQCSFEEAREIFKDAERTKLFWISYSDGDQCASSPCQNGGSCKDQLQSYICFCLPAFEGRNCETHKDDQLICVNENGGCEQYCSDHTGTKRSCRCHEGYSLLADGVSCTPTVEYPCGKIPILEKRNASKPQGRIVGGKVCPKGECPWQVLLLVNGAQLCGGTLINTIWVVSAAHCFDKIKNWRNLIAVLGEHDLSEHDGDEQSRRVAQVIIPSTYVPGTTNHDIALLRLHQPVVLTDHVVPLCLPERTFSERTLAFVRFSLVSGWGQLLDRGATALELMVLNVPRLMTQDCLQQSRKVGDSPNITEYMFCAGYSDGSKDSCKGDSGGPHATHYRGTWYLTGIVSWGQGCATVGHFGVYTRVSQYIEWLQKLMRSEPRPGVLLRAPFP

[5] = target: Coagulation factor X (Homo sapiens) (UniProt P00742); assay: Inhibition of factor 10a (unknown origin) at IC50 preincubated for 1 min followed by chromogenic substrate addition and measured for 2 mins; conditions: time 3.0 min
[6] = target: Coagulation factor XI (Homo sapiens) (UniProt P03951); assay: Inhibition of factor 11a (unknown origin) at IC50 using S-2366 as substrate preincubated for 1 min followed by chromogenic substrate addition and measured for 2 mins; conditions: time 3.0 min
[7] = target: T3, Coagulation factor XII (Homo sapiens) (UniProt P00748); assay: Inhibition of factor 12a (unknown origin) at IC50 using kallikrein chromogenic substrate preincubated for 1 min followed by chromogenic substrate addition and measured for 2 mins; conditions: time 3.0 min
T3 sequence (whole entry): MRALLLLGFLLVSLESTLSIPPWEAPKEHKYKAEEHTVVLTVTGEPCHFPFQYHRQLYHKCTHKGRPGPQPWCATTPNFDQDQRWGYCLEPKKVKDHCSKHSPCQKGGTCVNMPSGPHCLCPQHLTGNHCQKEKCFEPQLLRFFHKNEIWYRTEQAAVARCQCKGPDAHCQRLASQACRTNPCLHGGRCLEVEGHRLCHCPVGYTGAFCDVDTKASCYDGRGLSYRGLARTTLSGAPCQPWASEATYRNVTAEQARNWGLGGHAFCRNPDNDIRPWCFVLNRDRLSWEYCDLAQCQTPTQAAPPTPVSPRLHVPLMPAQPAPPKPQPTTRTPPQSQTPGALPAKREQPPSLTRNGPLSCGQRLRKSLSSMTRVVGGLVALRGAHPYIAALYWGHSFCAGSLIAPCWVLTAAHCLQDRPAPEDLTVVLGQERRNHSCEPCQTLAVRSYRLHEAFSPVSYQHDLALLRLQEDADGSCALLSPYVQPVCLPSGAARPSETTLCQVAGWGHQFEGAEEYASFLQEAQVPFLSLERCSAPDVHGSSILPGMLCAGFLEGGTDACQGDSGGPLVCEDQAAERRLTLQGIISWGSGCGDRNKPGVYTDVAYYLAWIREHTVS

[8] = target: Prothrombin (Homo sapiens) (UniProt P00734); assay: Inhibition of factor 2a (unknown origin) at IC50 preincubated for 1 min followed by chromogenic substrate addition and measured for 2 mins in presence of AT-III; conditions: time 3.0 min
[9] = target: T2, Coagulation factor VII (Homo sapiens); assay: Inhibition of factor 7a (unknown origin) at IC50 using pefachrome factor VIIa as substrate preincubated for 1 min followed by chromogenic substrate addition and measured for 2 mins in presence of AT-III; conditions: time 3.0 min
[10] = target: Coagulation factor X (Homo sapiens) (UniProt P00742); assay: Inhibition of factor 10a (unknown origin) at IC50 preincubated for 1 min followed by chromogenic substrate addition and measured for 2 mins in presence of AT-III; conditions: time 3.0 min
[11] = target: Coagulation factor XI (Homo sapiens) (UniProt P03951); assay: Inhibition of factor 11a (unknown origin) at IC50 using S-2366 as substrate preincubated for 1 min followed by chromogenic substrate addition and measured for 2 mins in presence of AT-III; conditions: time 3.0 min
[12] = target: T3, Coagulation factor XII (Homo sapiens); assay: Inhibition of factor 12a (unknown origin) at IC50 using kallikrein chromogenic substrate preincubated for 1 min followed by chromogenic substrate addition and measured for 2 mins in presence of AT-III; conditions: time 3.0 min
[13] = target: Prothrombin (Homo sapiens) (UniProt P00734); assay: Inhibition of factor 2a (unknown origin) at IC90 preincubated for 1 min followed by chromogenic substrate addition and measured for 2 mins in presence of AT-III; conditions: time 3.0 min
[14] = target: Coagulation factor XI (Homo sapiens) (UniProt P03951); assay: Inhibition of factor 11a (unknown origin) at IC90 using S-2366 as substrate preincubated for 1 min followed by chromogenic substrate addition and measured for 2 mins in presence of AT-III; conditions: time 3.0 min
[15] = target: Coagulation factor X (Homo sapiens) (UniProt P00742); assay: Inhibition of factor 10a (unknown origin) at IC90 preincubated for 1 min followed by chromogenic substrate addition and measured for 2 mins in presence of AT-III relative to control; conditions: time 3.0 min
[16] = system: Plasma; assay: Anticoagulation activity in AT-III-deficient human plasma preincubated for 2 mins followed by APTT reagent and measured after 3 mins by coagulometric method; type: functional, cell-free; conditions: time 5.0 min
[17] = system: Plasma; assay: Anticoagulation activity in HCII-deficient human plasma preincubated for 2 mins followed by APTT reagent and measured after 3 mins by coagulometric method; type: functional, cell-free; conditions: time 5.0 min
[18] = system: Rattus norvegicus; assay: Antithrombotic activity in thromboplastin and stasis-induced Sprague-Dawley rat deep venous thrombosis model assessed as reduction in venous thrombosis at 2.36 mg/kg, sc administered 1 hr prior to thromboplastin addition for 20 secs followed by establishment of stasis for 20 mins; type: functional; set-up: scale not given: the % may be the effect or the level left; conditions: time 80.33 min, 1.339 h
[19] = system: Plasma; assay: Anticoagulation activity in human plasma assessed as drug level causing 20 times doubling of APTT preincubated for 2 mins followed by APTT reagent and measured after 3 mins by coagulometric method relative to dHG-5; type: functional; conditions: time 5 min
[20] = target: T4, Coagulation factor IX/VIII (Homo sapiens) (UniProt P00740+P00451); assay: Inhibition of human citrated plasma iXase (factor 8a-factor 9a complex) preincubated for 2 mins followed by factor 10 addition and measured after 1 min by FXa chromogenic substrate SXa-11 based assay relative to dHG-5; type: protein-complex assay; conditions: time 3.0 min
[21] = target: T1, Coagulation factor IX; assay: Inhibition of factor 9a (unknown origin) binding to immobilized biotinylated oHG-11 by biolayer interferometry relative to dHG-5
[22] = system: Rattus norvegicus; assay: Antithrombotic activity in thromboplastin and stasis-induced Sprague-Dawley rat deep venous thrombosis model assessed as reduction in venous thrombosis at 2.36 mg/kg, sc administered 1 hr prior to thromboplastin addition for 20 secs followed by establishment of stasis for 20 mins relative to dHG-5; type: functional; conditions: time 80.33 min, 1.339 h
[23] = system: Plasma; assay: Anticoagulation activity in human plasma assessed as drug level causing 20 times doubling of APTT by measuring activity potency of oligosaccharides multiplied by the percentage of oligosaccharides in dHG-5 preincubated for 2 mins followed by APTT reagent and measured after 3 mins by coagulometric method relative to dHG-5; type: functional; conditions: time 5 min
[24] = target: T4, Coagulation factor IX/VIII (Homo sapiens); assay: Inhibition of human citrated plasma iXase (factor 8a-factor 9a complex) assessed as activity potency of oligosaccharides multiplied by the percentage of oligosaccharides in dHG-5 preincubated for 2 mins followed by factor 10 addition and measured after 1 min by FXa chromogenic substrate SXa-11 based assay relative to dHG-5; type: protein-complex assay; conditions: time 3.0 min
[25] = target: T1, Coagulation factor IX; assay: Inhibition of factor 9a (unknown origin) binding to immobilized biotinylated oHG-11 assessed as activity potency of oligosaccharides multiplied by the percentage of oligosaccharides in dHG-5 by biolayer interferometry relative to dHG-5
[26] = system: Rattus norvegicus; assay: Antithrombotic activity in thromboplastin and stasis-induced Sprague-Dawley rat deep venous thrombosis model assessed as reduction in venous thrombosis by measuring activity potency of oligosaccharides multiplied by the percentage of oligosaccharides in dHG-5 at 2.36 mg/kg, sc administered 1 hr prior to thromboplastin addition for 20 secs followed by establishment of stasis for 20 mins relative to dHG-5; type: functional; conditions: time 80.33 min, 1.339 h

Chain of Coagulation factor X (Homo sapiens) (P00742 41-179 limits assumed): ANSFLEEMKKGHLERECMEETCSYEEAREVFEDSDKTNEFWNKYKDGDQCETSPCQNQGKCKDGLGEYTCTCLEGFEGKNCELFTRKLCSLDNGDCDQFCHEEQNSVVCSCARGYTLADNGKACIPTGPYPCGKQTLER
Chain of Coagulation factor X (Homo sapiens) (P00742 235-488 limits assumed): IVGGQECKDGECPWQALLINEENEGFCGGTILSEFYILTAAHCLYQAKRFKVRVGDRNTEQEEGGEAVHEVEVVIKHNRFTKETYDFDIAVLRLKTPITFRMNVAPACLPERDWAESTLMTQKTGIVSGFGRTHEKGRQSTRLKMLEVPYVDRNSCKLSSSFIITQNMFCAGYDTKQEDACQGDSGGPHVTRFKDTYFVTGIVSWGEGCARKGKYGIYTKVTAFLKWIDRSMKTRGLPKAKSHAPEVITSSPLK
T1 sequence (P00740 47-191 limits assumed): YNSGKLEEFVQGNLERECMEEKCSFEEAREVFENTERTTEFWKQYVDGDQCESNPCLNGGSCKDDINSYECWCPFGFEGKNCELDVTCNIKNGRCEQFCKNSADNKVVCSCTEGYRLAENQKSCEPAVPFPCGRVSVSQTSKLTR
T1 sequence (P00740 227-461 limits assumed): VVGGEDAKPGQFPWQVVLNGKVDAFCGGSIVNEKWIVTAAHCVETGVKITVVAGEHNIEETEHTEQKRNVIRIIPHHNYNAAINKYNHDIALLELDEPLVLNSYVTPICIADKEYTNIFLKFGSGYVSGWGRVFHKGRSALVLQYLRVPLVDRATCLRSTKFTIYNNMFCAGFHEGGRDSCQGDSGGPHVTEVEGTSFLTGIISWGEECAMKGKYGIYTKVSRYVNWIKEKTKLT
Chain of Coagulation factor XI (Homo sapiens) (P03951 19-387 limits assumed): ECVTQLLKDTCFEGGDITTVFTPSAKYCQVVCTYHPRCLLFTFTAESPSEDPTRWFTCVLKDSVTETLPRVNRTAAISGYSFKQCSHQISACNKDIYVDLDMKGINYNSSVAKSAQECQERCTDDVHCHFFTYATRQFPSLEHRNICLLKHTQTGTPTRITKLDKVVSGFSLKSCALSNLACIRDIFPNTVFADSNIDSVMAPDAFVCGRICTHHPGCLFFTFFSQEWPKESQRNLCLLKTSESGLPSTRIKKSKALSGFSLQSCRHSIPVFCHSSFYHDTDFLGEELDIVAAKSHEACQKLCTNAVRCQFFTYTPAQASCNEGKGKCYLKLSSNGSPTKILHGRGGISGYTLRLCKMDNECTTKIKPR
Chain of Coagulation factor XI (Homo sapiens) (P03951 388-625 limits assumed): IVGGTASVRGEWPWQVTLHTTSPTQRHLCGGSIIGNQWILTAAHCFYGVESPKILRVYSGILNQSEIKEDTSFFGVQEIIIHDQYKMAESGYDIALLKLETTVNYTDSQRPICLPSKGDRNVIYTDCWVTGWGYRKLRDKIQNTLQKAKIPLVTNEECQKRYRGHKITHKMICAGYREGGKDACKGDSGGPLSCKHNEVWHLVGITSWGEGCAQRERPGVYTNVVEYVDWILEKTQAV
Chain of Coagulation factor IX/VIII (P00451 20-759 limits assumed): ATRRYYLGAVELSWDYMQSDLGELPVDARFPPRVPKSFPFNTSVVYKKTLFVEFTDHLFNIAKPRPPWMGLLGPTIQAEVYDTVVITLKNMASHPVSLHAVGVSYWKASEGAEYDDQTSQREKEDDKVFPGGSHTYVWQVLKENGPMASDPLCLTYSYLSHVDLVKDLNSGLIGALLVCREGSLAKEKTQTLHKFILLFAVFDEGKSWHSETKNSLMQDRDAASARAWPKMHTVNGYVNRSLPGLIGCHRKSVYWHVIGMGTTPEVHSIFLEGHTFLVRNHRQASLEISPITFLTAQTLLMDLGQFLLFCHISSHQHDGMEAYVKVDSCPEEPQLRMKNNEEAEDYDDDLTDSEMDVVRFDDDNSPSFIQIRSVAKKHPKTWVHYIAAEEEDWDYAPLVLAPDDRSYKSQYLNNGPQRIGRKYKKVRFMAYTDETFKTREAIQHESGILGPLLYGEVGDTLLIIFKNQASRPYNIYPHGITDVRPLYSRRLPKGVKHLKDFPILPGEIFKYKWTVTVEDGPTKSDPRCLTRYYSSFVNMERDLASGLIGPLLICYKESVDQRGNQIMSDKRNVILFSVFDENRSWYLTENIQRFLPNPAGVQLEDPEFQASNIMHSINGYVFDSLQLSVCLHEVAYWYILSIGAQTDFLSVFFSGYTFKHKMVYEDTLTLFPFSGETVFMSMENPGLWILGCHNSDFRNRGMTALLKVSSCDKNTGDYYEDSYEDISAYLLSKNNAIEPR
Chain of Coagulation factor IX/VIII (P00451 1668-2351 limits assumed): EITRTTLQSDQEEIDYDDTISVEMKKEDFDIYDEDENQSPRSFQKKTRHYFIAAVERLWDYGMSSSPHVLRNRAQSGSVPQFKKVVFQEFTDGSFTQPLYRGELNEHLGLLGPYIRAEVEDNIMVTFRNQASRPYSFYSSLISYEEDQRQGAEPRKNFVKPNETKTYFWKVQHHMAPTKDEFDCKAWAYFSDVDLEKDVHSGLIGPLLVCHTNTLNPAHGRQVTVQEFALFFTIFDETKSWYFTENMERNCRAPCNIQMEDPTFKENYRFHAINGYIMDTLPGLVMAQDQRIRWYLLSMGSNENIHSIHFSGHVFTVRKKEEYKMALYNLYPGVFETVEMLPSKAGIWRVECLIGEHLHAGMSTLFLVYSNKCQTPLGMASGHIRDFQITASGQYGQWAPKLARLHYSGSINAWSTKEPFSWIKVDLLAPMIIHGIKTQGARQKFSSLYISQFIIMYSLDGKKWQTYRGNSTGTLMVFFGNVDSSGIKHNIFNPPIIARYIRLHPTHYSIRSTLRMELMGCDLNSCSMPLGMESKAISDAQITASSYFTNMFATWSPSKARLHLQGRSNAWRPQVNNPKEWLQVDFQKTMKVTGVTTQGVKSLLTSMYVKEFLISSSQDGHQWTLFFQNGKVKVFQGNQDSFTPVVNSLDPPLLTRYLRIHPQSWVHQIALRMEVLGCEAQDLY
Chain of Coagulation factor IX/VIII (P00740 47-191 limits assumed): as the sequence (P00740 47-191 limits assumed) above
Chain of Coagulation factor IX/VIII (P00740 227-461 limits assumed): as the sequence (P00740 227-461 limits assumed) above

SMILES: CC(=O)N[C@H]1[C@H](O[C@@H]([C@H](O[C@@H]2O[C@@H](C)[C@@H](OS(=O)(=O)[O-])[C@@H](OS(=O)(=O)O)[C@@H]2O)[C@@H](O)CO)[C@H](O)C(=O)[O-])O[C@H](COS(=O)(=O)[O-])[C@H](OS(=O)(=O)[O-])[C@@H]1O[C@@H]1O[C@H](C(=O)[O-])[C@@H](O[C@@H]2O[C@H](COS(=O)(=O)[O-])[C@H](OS(=O)(=O)[O-])[C@H](O[C@@H]3O[C@H](C(=O)[O-])[C@@H](O[C@@H]4O[C@H](COS(=O)(=O)[O-])[C@H](OS(=O)(=O)[O-])[C@H](O[C@@H]5O[C@H](C(=O)[O-])[C@@H](O[C@@H]6O[C@H](COS(=O)(=O)[O-])[C@H](OS(=O)(=O)[O-])[C@H](O[C@@H]7O[C@H](C(=O)[O-])[C@@H](O[C@@H]8O[C@H](COS(=O)(=O)[O-])[C@H](OS(=O)(=O)[O-])[C@H](O[C@@H]9OC(C(=O)[O-])=C[C@H](O[C@@H]%10O[C@@H](C)[C@@H](OS(=O)(=O)[O-])[C@@H](OS(=O)(=O)O)[C@@H]%10O)[C@H]9O)[C@H]8NC(C)=O)[C@H](O[C@@H]8O[C@@H](C)[C@@H](OS(=O)(=O)[O-])[C@@H](OS(=O)(=O)O)[C@@H]8O)[C@H]7O)[C@H]6NC(C)=O)[C@H](O[C@@H]6O[C@@H](C)[C@@H](OS(=O)(=O)[O-])[C@@H](OS(=O)(=O)O)[C@@H]6O)[C@H]5O)[C@H]4NC(C)=O)[C@H](O[C@@H]4O[C@@H](C)[C@@H](OS(=O)(=O)[O-])[C@@H](OS(=O)(=O)O)[C@@H]4O)[C@H]3O)[C@H]2NC(C)=O)[C@H](O[C@@H]2O[C@@H](C)[C@@H](OS(=O)(=O)[O-])[C@@H](OS(=O)(=O)O)[C@@H]2O)[C@H]1O.[Na+].[Na+].[Na+].[Na+].[Na+].[Na+].[Na+].[Na+].[Na+].[Na+].[Na+].[Na+].[Na+].[Na+].[Na+].[Na+].[Na+].[Na+].[Na+].[Na+].[Na+].[Na+]
- IC50 [1]: 17.2 nM
- IC50 [2]: 416 nM
- inhibition [3]: inactive
- inhibition (active/not active) [4]: inactive
- inhibition [5]: inactive
- inhibition [6]: inactive
- inhibition [7]: inactive
- inhibition [8]: inactive
- inhibition [9]: inactive
- inhibition [10]: inactive
- inhibition [11]: inactive
- inhibition [12]: inactive
- inhibition [13]: Active
- inhibition [14]: Active
- inhibition [15]: inactive
- Activity [16]: Active
- Activity [17]: Active
- Activity [18]: 58.4%
- Ratio [19]: 104.07 U
- Ratio [20]: 81.6 U
- Ratio [21]: 103 U
- Ratio [22]: 123.01 U
- Ratio [23]: 14.17 U
- Ratio [24]: 11.1 U
- Ratio [25]: 14.1 U
- Ratio [26]: 16.73 U
